Source: patent US12325867B2, “Organoid produced using carrier for cell culture, and method for evaluating drug toxicity using same” (Korea Research Institute of Chemical Technology, priority 2018, dated 2025)

Test system: artificial myocardial structure (cardiac organoid)
Assay: contractile force-based cardiac toxicity assessment using the artificial myocardial structure
Assay type: cell-based, human
Description: Furthermore, after additionally treating an artificial myocardial structure prepared by coculturing gelatin oil capsules and cardiomyocytes with various drugs, contractile forces of the drug-treated artificial myocardial structure were checked.

Structure (SMILES)	beat rates (group treated with 10 nM)	contractile forces (group treated with 10 nM)	beat rates (group treated with 125 nM)
CC(C)NCC(O)c1ccc(O)c(O)c1 (stereo not drawn) [Isopreterenol]	accelerated	changed strongly	
COc1ccc(CCN(C)CCCC(C#N)(c2ccc(OC)c(OC)c2)C(C)C)cc1OC (stereo not drawn) [verapamil]			slow down and become somewhat irregular
